Where “and” joins values, the source holds several entries; their conditions need not be identical. Equal entries are not always repeated. Where two headings read alike, the source gives them in different places.
What was measured:
[1] = test system: wild-type (wt) Salmonella enterica serovar Typhimurium strain SL1344; details: for MIC: non-cation-adjusted MHB, 37°C, 24 h; for MIC in μM, SL1344 wt: Table 3, three biological replicates
Method: (§1) MIC values were determined by broth microdilution according to standard protocols with a few modifications ([26]). An overnight bacterial cell culture, supplemented with the appropriate antibiotic when needed, was diluted 1:100 in fresh MHB and grown to OD600 0.5. The obtained culture was diluted to ∼10^5 cfu/ml or 10^6 cfu/ml, as indicated, in non-cation-adjusted MHB. Subsequently, 190 μl bacterial solution was dispensed into a 96-well plate (Thermo Fisher Scientific) along with 10 μl of a 20x PPNA, PNA or peptide working solution. Growth was monitored by measuring the OD at 600 nm every 20 min in a Synergy H1 plate reader (Biotek) with continuous double-orbital shaking (237 cpm) at 37°C for 24 h.

SL1344 ΔphoP = assay: MIC determination by broth microdilution; type: cell-based, Salmonella enterica serovar Typhimurium; details: ∼10^5 cfu/ml; for MIC in μM, SL1344 ΔphoP: Table 3, three biological replicates
Method: as §1
Fig. S4. Growth kinetics for MIC determ ination of 10^5 cfu/m l Salmonella wt (SL1344) and its isogenic ∆phoP m utant in the pres ence of var ying concentrations of the indicated conjugates. ( A) KFF-acpP, KFF-acpP-scram bled (scr) or KFF peptide in serial dilutions from 10 µM to 0.3 µM. ( B) RXR- acpP, RXR-acpP-scram bled (scr) or RXR peptide in seria l d ilutions f rom 10 µM to 0. 3 µM. ( C) T at-acpP, T at-acpP-scrambled (scr) or T at peptide in serial dilutions from 20 µM to 0.6 µM. D ata represent the average of three biological replicates, error bars indicate standard er ror of the m ean […]
(§2) (1 picture or pasted object on this page, not shown here)

[2] = test system: wild-type Salmonella enterica serovar Typhimurium strain LT2; assay: MIC determination by broth microdilution; type: cell-based; details: Table 3; ∼10^5 cfu/ml; three biological replicates
Method: as §1
Fig. S5. Growth k inetics for MIC determ ination of 10^5 cfu/m l Salmonella wt (LT 2) and its isogenic
Pho PC m utant in the presen ce of var ying co ncentra tio n s of the in dicat ed co njugat e s. ( A) KFF-acpP,
KFF-acpP-scram bled (scr) or KFF peptide in s erial dilutions from 10 µM to 0.3 µM. ( B) RXR- acpP,
RXR- acpP-scram bled (scr) or RXR peptide in serial dilutions from 10 µM to 0.3 µ M. ( C) T at-acpP,
T at-acpP-scram bled (scr) or T at peptide in serial dilutions from 20 µM to 0.6 µM. Data represent
the average of three biological replicates, error bars indicate standard error of the m ean (SEM).
as §2

[3] = test system: Salmonella gene expression; assay: RNA-seq transcriptomic response; type: cell-based, Salmonella enterica serovar Typhimurium; details: 15 min
Method: Bacterial overnight cultures were diluted 1:100 in fresh MHB and grown to OD600 0.5. The obtained cultures were diluted to ∼10^6 cfu/ml in non-cation-adjusted MHB. Afterward, the bacterial solution was transferred into low-binding 5 ml tubes (LABsolute) along with the 20× PNA, peptide or PPNA solution. The final concentrations were 5 μM for KFF- and RXR-PNAs, and 10 μM for Tat-PNAs. Equimolar concentrations were used for the respective peptide control conditions. As a negative control, cells were treated with the respective volume of sterile nuclease-free water, which was used as solvent for the test compounds.
A time kinetic was performed for subsequent northern blot analysis (5, 10, 15 min), in which the reaction was stopped at the indicated time points by using RNAprotect Bacteria (Qiagen). For RNA-seq analyses, adding RNAprotect Bacteria at 15 min post treatment stopped the reactions with the indicated PPNA constructs or the respective peptide. After vortexing for 5 s, the samples were incubated at room temperature for 10 min, followed by cell pelleting at 4°C and 21 100 ×g for 20 min. Pellets were directly used for RNA isolation or stored at –20°C (<2 days) until further processing. RNA was purified from bacterial pellets using isolation protocol #3, as described above (0.5 mg/ml lysozyme, miRNeasy).
DNase treatment, cDNA library preparation and sequencing was conducted at Vertis (Munich, Germany). The RNA samples were first fragmented using ultrasound (4 pulses of 30 s each at 4°C). Then, an oligonucleotide adapter was ligated to the 3′ ends of the RNA molecules. First-strand cDNA synthesis was performed using M-MLV reverse transcriptase and the 3′ adapter as primer. The first-strand cDNA was purified and the 5′ Illumina TruSeq sequencing adapter was ligated to the 3′ end of the antisense cDNA. The resulting cDNA was PCR-amplified to about 10–20 ng/μl using a high fidelity DNA polymerase. The cDNA was purified using the Agencourt AMPure XP kit (Beckman Coulter Genomics) and was analyzed by capillary electrophoresis. For Illumina NextSeq sequencing, the samples were pooled in approximately equimolar amounts. The cDNA pool was sequenced on an Illumina NextSeq 500 system using 75 bp read length.
Reads from the RNA-Seq experiments were trimmed, filtered and mapped against the S. enterica subsp. enterica serovar Typhimurium SL1344 reference genome and the three plasmids pSLT_SL1344, pCol1B9_SL1344 (other name is p2), and pRSF1010_SL1344 ([19]). BBDuk was applied to trim bases with a Phred quality score of <10, and adapters were removed simultaneously. Reads were then mapped against the reference genome using BBMap (v38.84) and then assigned genomic features, including both coding sequences and annotated sRNAs ([19],[29]) using the featureCounts method of the Subread (2.0.1) package.
All downstream analysis was performed using packages from the R/Bioconductor project. The raw read counts were imported and analyzed with edgeR (v3.30.0). Each set of PNA-peptide conjugate experiments (i.e. experiments with KFF, RXR and Tat peptide) was analyzed simultaneously. Genes with less than 14.6 counts per million (CPM) in at least three libraries were filtered. This cutoff value was calculated using 10/L, where L is the library size of the smallest sample (minimum library size) in millions.
Raw read counts were normalized by trimmed mean of M values (TMM) normalization. Differential expression analysis was conducted using edgeR ([31]). Estimation of quasi-likelihood (QL) dispersions was then run with the […] function. Then contrasts between all samples versus the water controls were created as input for the glmQLTest function.
Genes with an absolute fold change >2 and an adjusted P-value (Benjamini–Hochberg, ([32])) <0.001 were considered differentially expressed.

[4] = Table 1, ∼10^5 cfu/ml, lowest concentration with OD600 < 0.1
[5] = Table 2, ∼10^6 cfu/ml, performed three times
[6] = edgeR, versus water, 5 μM RXR-constructs, 10 μM Tat-constructs, triplicates, listed as PNATAT
[7] = edgeR, versus water, 5 μM RXR-constructs, 10 μM Tat-constructs, triplicates, listed as PNARXR
[8] = edgeR, versus water, 5 μM KFF-/RXR-constructs, 10 μM Tat-constructs, triplicates, listed as PNAKFF

Sequence	MIC ([1]; Table 1, ∼10^5 cfu/ml)	MIC [1, 4]	MIC [1, 5]	MIC in μM, SL1344 wt ([1]; ∼10^5 cfu/ml)	MIC in μM, SL1344 ΔphoP (SL1344 ΔphoP)	MIC in μM, LT2 wt [2]	also measured
GRKKKRRQRRRYK [Tat-acpP, Tat peptide conjugated to 10-mer antisense PNA against acpP]	22 µg/mL	5 µM	10 µM	5 µM	2.5 µM	2.5 to 5 µM	reduction in the MIC of the ΔphoP strain compared to wild-type Salmonella (SL1344 ΔphoP; SL1344 ΔphoP versus SL1344 wt): 2 fold; number of differentially expressed sRNAs, apart from AmgR upregulation ([3]; RNA-seq, 10 μM): five; logFC SL1344_0066A [3, 6]: 4.741; logFC SL1344_2742 [3, 6]: 3.794; logFC sseG ([3]; edgeR, versus water, 10 μM, triplicates): 3.37; logFC recJ ([3]; edgeR, versus water, 10 μM, triplicates, listed as PNATAT): 1.967
RXRRXRRXRRXRXB [RXR-acpP, RXR peptide conjugated to 10-mer antisense PNA against acpP]	11 µg/mL	2.5 µM	5 µM	2.5 µM	1.25 to 2.5 µM	1.25 µM	number of downregulated sRNAs, apart from the induction of AmgR ([3]; RNA-seq, 5 μM): four; upregulation of mig-14 ([3]; RNA-seq, 5 μM): 1.89 fold; logFC SL1344_0066A [3, 7]: 4.762; logFC SL1344_2742 [3, 7]: 3.54; logFC mgtA [3, 7]: 1.7; logFC hfq ([3]; edgeR, versus water, 5 μM, triplicates): -1.309
KFFKFFKFFK [KFF-acpP, KFF peptide conjugated to 10-mer antisense PNA against the translational start site of acpP]	5 µg/mL	1.25 µM	5 µM	1.25 µM	did not alter the MIC and 1.25 μM	1.25 µM	number of differentially expressed genes ([3]; absolute fold change >2 and FDR-adjusted P-value <0.001 versus water, 5 μM KFF-/RXR-constructs, 10 μM Tat-constructs): 5; upregulation of AmgR transcript levels ([3]; RNA-seq, 5 μM): ~1.9 fold; upregulation of mig-14, virK and yfiA mRNAs ([3]; RNA-seq, 5 μM): 2- to 4 fold; logFC yfiA ([3]; edgeR, versus water, 5 μM KFF-/RXR-constructs, 10 μM Tat-constructs, triplicates): 1.09; logFC mig-14 [3, 8]: 1.3466; logFC virK [3, 8]: 1.758
